Measured values from publication PMC12621043, “Un-LOK-ing a New Approach for Conformational Selective Targeting of STK10 (LOK)” (ACS Medicinal Chemistry Letters, 2025).
Where “and” joins values, the source holds several entries; their conditions need not be identical. Equal values may be shown once.

Experiments:
BMP2KA = molecular target: T1, BMP2KA (Homo sapiens, UniProt Q9NSY1); experiment: DSF Tm panel; format: binding; conditions: 10 μM compound
T1 construct: purchased in-house DSF kinase panel (SGC-style construct names; the trailing letter is the construct ID)

STK10 [1] = molecular target: T2, STK10 (Homo sapiens, UniProt O94804); experiment: DSF Tm panel; format: binding; conditions: 10 μM compound
T2 construct: purchased in-house DSF kinase panel (SGC-style construct names; the trailing letter is the construct ID)

BMX (BMXA) = molecular target: T3, BMX (BMXA) (Homo sapiens, UniProt P51813); experiment: DSF Tm panel; format: binding; conditions: 10 μM compound
T3 construct: purchased in-house DSF kinase panel (SGC-style construct names; the trailing letter is the construct ID)

K2A2 (CSNK2A2A) = molecular target: T4, K2A2 (CSNK2A2A) (Homo sapiens, UniProt P19784); experiment: DSF Tm panel; format: binding; conditions: 10 μM compound
T4 construct: purchased in-house DSF kinase panel (SGC-style construct names; the trailing letter is the construct ID)

PAK4A = molecular target: T5, PAK4A (Homo sapiens, UniProt O96013); experiment: DSF Tm panel; format: binding; conditions: 10 μM compound
T5 construct: purchased in-house DSF kinase panel (SGC-style construct names; the trailing letter is the construct ID)

PLK4A = molecular target: T6, PLK4A (Homo sapiens, UniProt O00444); experiment: DSF Tm panel; format: binding; conditions: 10 μM compound
T6 construct: purchased in-house DSF kinase panel (SGC-style construct names; the trailing letter is the construct ID)
T6 sequence (O00444 2-275): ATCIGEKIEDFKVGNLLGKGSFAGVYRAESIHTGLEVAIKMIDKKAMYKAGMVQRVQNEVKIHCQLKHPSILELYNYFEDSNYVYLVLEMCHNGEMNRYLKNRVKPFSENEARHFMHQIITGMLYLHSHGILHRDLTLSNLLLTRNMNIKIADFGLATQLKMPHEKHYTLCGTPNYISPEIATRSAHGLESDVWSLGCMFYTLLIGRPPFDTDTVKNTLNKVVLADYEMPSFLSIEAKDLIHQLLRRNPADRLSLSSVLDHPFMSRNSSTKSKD

TTKA = molecular target: T7, TTKA (Homo sapiens, UniProt P33981); experiment: DSF Tm panel; format: binding; conditions: 10 μM compound
T7 construct: purchased in-house DSF kinase panel (SGC-style construct names; the trailing letter is the construct ID)
T7 sequence (P33981 519-808): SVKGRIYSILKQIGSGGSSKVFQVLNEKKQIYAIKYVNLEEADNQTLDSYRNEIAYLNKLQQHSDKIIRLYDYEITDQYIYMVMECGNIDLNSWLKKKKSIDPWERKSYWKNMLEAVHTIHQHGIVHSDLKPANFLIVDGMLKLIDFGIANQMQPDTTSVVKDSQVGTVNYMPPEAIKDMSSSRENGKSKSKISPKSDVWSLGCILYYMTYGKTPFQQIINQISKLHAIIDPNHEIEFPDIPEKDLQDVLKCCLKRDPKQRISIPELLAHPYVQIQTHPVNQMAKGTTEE

DYRK1AA = molecular target: T8, DYRK1AA (Homo sapiens, UniProt Q13627); experiment: DSF Tm panel; format: binding; conditions: 10 μM compound
T8 construct: purchased in-house DSF kinase panel (SGC-style construct names; the trailing letter is the construct ID)

CASKA = molecular target: T9, CASKA (Homo sapiens, UniProt O14936); experiment: DSF Tm panel; format: binding; conditions: 10 μM compound
T9 construct: purchased in-house DSF kinase panel (SGC-style construct names; the trailing letter is the construct ID)
T9 sequence (O14936 12-276): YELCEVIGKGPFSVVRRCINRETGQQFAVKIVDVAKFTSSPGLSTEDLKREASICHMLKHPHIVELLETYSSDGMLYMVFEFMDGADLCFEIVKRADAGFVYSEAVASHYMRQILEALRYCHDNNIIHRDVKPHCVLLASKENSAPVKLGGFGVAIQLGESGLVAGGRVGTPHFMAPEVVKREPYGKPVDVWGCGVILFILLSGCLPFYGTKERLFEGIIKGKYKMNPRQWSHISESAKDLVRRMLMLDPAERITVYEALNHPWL

MAPK9A = molecular target: T10, MAPK9A (Homo sapiens, UniProt P45984); experiment: DSF Tm panel; format: binding; conditions: 10 μM compound
T10 construct: purchased in-house DSF kinase panel (SGC-style construct names; the trailing letter is the construct ID)

PIM1 (PIM1A) = molecular target: T11, PIM1 (PIM1A) (Homo sapiens, UniProt P11309); experiment: DSF Tm panel; format: binding; conditions: 10 μM compound
T11 construct: purchased in-house DSF kinase panel (SGC-style construct names; the trailing letter is the construct ID)

NEK1A = molecular target: T12, NEK1A (Homo sapiens, UniProt Q96PY6); experiment: DSF Tm panel; format: binding; conditions: 10 μM compound
T12 construct: purchased in-house DSF kinase panel (SGC-style construct names; the trailing letter is the construct ID)
T12 sequence (Q96PY6 1-328): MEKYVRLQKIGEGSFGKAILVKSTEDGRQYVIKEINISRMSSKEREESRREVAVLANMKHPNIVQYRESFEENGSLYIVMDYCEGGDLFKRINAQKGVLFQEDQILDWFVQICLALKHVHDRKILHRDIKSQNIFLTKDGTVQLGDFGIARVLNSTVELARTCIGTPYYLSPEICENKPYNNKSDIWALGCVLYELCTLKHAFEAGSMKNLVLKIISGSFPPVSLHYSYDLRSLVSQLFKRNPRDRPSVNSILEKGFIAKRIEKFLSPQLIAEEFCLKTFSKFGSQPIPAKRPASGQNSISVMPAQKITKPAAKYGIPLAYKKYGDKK

STK10 [2] = molecular target: T2, STK10; experiment: PhosphoSens in vitro activity assay; format: biochemical; conditions: ATP 160 μM
SLK = SLK (Homo sapiens, UniProt Q9H2G2); experiment: DSF Tm panel; format: binding; design: purchased in-house DSF kinase panel (SGC-style construct names; the trailing letter is the construct ID); conditions: 10 μM compound

T11 sequence (P11309 whole entry): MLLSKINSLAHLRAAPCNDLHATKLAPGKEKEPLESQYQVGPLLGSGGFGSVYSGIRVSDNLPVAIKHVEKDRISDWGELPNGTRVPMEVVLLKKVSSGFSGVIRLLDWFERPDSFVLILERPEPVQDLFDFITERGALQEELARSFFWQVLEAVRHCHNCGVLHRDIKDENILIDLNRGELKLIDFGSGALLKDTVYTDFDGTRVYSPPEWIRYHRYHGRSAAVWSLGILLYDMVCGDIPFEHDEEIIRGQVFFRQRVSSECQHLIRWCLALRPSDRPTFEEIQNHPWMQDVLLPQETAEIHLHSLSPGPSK
T3 sequence (P51813 411-675): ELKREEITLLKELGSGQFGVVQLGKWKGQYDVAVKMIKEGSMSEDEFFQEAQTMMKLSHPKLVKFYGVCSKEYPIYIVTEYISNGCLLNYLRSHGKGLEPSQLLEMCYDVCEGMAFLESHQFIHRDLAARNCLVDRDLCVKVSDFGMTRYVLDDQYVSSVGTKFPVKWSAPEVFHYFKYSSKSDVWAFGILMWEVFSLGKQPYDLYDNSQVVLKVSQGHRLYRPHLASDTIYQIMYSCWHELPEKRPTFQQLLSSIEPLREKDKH
T5 sequence (O96013 291-591): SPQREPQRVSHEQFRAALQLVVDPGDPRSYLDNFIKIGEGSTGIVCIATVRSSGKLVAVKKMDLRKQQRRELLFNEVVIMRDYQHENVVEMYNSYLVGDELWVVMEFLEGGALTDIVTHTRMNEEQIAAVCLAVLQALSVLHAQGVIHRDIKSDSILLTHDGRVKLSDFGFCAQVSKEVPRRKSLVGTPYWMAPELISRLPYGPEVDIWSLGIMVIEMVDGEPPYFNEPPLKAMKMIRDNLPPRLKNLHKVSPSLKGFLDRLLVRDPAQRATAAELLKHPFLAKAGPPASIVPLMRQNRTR
T10 sequence (P45984 7-364): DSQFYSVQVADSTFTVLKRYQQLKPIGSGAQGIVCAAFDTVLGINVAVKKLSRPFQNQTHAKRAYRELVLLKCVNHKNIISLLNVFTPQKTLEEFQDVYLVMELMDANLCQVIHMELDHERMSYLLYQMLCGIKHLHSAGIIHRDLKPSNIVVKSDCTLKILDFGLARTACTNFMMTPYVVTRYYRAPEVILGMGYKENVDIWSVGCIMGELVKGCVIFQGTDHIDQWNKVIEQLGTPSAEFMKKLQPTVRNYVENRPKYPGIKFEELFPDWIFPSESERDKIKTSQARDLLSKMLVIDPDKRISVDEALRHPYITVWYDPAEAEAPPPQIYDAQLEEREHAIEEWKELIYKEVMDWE
T2 sequence (O94804 18-317 limits assumed): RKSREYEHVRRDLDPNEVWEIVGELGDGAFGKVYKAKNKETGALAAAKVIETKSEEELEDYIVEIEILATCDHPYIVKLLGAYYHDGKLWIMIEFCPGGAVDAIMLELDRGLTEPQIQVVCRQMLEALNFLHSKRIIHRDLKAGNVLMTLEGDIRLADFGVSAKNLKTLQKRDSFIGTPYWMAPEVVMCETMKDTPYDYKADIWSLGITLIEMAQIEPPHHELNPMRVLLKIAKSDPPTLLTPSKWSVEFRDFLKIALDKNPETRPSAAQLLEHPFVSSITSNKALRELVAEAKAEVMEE
T4 sequence (P19784 whole entry): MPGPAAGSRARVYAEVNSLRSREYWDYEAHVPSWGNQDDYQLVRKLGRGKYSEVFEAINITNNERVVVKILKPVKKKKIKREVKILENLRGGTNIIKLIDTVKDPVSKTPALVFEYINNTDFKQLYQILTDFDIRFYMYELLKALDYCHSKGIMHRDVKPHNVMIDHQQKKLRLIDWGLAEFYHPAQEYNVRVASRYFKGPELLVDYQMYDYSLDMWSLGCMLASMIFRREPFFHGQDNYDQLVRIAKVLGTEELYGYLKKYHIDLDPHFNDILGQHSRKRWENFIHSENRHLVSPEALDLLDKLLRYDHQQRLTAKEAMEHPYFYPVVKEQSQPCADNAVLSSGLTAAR
T1 sequence (Q9NSY1 38-345): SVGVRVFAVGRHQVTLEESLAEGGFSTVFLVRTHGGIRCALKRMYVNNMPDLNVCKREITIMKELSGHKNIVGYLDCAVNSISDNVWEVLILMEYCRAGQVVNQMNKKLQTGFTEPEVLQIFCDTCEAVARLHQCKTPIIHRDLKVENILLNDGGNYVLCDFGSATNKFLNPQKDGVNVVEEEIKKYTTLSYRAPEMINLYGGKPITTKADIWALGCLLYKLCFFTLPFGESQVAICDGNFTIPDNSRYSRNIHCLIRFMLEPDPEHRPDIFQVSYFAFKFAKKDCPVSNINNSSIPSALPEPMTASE

| Compound | ΔTm at 10 µM (BMP2KA) [°C] | ΔTm at 10 µM (STK10 [1]) [°C] | ΔTm at 10 µM (BMX (BMXA)) [°C] | ΔTm at 10 µM (K2A2 (CSNK2A2A)) [°C] | ΔTm at 10 µM (PAK4A) [°C] | ΔTm at 10 µM (PLK4A) [°C] | ΔTm at 10 µM (TTKA) [°C] | ΔTm at 10 µM (DYRK1AA) [°C] | ΔTm at 10 µM (CASKA) [°C] | ΔTm at 10 µM (MAPK9A) [°C] | ΔTm at 10 µM (PIM1 (PIM1A)) [°C] | ΔTm at 10 µM (NEK1A) [°C] | IC50 (STK10 [2]) | ΔTm at 10 µM (SLK) [°C] | ΔTm STK10 (STK10 [1]; 10 µM) |
| --- | --- | --- | --- | --- | --- | --- | --- | --- | --- | --- | --- | --- | --- | --- | --- |
| O=C(NCc1ccccc1)Nc1ccc2cc1OCCOCCNc1ccn3ncc-2c3n1 [compound 16] | 12.2 | 6.9 | 1.7 | 2.3 | -0.2 | 4.1 | 1.5 | 3.8 | 2.2 | 1.7 | 1.2 | 0.1 | 880 ± 110 nM | 4.4 | – |
| O=C(NCc1ccccc1Cl)Nc1ccc2cc1OCCOCCNc1ccn3ncc-2c3n1 [compound 17] | 9.2 | 8.5 | 1.2 | 4 | 0 | 3.9 | 1.8 | -1.3 | 2.8 | 0.4 | 1.5 | 0.2 | 1530 ± 260 nM | 4.8 | – |
| O=C(NCc1cccc(Cl)c1)Nc1ccc2cc1OCCOCCNc1ccn3ncc-2c3n1 [compound 18] | 8.7 | 9.4 | 1.4 | 3.1 | 0.1 | 3.2 | 2.2 | 1.1 | 2.1 | 0.5 | 3.2 | 0.2 | 2570 ± 110 nM | 4.7 | – |
| O=C(NCc1ccc(Cl)cc1)Nc1ccc2cc1OCCOCCNc1ccn3ncc-2c3n1 [compound 19] | 9.8 | 10 | 1.4 | 3.6 | 0.1 | 2.5 | 1.4 | -1 | 2.2 | 0.3 | 1.8 | -0.2 | 950 ± 120 nM | 5.2 | – |
| O=C(NCc1ccc(Cl)cc1Cl)Nc1ccc2cc1OCCOCCNc1ccn3ncc-2c3n1 [compound 20] | 6.7 | 9.6 | 1.6 | 3 | 0.8 | 2.8 | 1.2 | 0.6 | 1.7 | 1.5 | 3 | 0.7 | 1430 ± 280 nM | 5.8 | – |
| O=C(NCc1ccc(Cl)cc1F)Nc1ccc2cc1OCCOCCNc1ccn3ncc-2c3n1 [compound 21] | 7.5 | 7.3 | 1.4 | 4.2 | 0.9 | 2.6 | 1.8 | 0.7 | 2.7 | 0.3 | 2.8 | 0.7 | 2620 ± 610 nM | 5.7 | – |
| Cc1cc(Cl)ccc1CNC(=O)Nc1ccc2cc1OCCOCCNc1ccn3ncc-2c3n1 [compound 23] | 5.9 | 11.1 | 1.8 | 2.8 | 1.2 | 2.8 | 1.8 | 2.6 | 2.5 | 2 | 2.3 | 0.9 | 850 nM and < 1000 nM | 3.5 | – |
| Cc1cc(Br)ccc1CNC(=O)Nc1ccc2cc1OCCOCCNc1ccn3ncc-2c3n1 [compound 24] | 6.7 | 8.3 | 1.8 | 0.5 | 1.9 | 2.3 | 2.6 | 0.4 | 0.6 | -1.2 | 0.5 | -0.4 | 4620 ± 880 nM | 2.9 | – |
| Cc1ccc(F)cc1CNC(=O)Nc1ccc2cc1OCCOCCNc1ccn3ncc-2c3n1 [compound 26] | 9.1 | 9.2 | 0.3 | 0.9 | 1.8 | 3.3 | 1.9 | 0.8 | 1.2 | -1.6 | 1 | -0.4 | 3530 ± 570 nM | 3.2 | – |
| O=C(NCc1ccccc1C(F)(F)F)Nc1ccc2cc1OCCOCCNc1ccn3ncc-2c3n1 [compound 27] | 7.2 | 10.2 | 3 | 0.7 | 2.1 | 3.9 | 3.5 | 1 | 1.6 | -0.1 | 1.1 | -0.4 | 2360 ± 600 nM | 4.2 | – |
| O=C(NCc1ccc(C(F)(F)F)cc1)Nc1ccc2cc1OCCOCCNc1ccn3ncc-2c3n1 [compound 28] | 7.7 | 9.9 | 2.7 | 0.5 | 2.4 | 3.3 | 3.1 | 1.6 | 0.5 | -0.2 | 1 | 0 | 5000 ± 610 nM | 3.1 | – |
| COc1ccccc1CNC(=O)Nc1ccc2cc1OCCOCCNc1ccn3ncc-2c3n1 [compound 29] | 8.3 | 7.5 | -0.1 | 0.3 | 1.3 | 3 | 1.4 | -0.5 | 1.1 | -2.1 | 1 | -0.3 | 5200 ± 810 nM | 2.5 | – |
| COc1ccc(CNC(=O)Nc2ccc3cc2OCCOCCNc2ccn4ncc-3c4n2)cc1 [compound 31] | 12 | 6 | 1.4 | 2.5 | 1.7 | 4.9 | 1.8 | 0.3 | 1.8 | -1.3 | 2 | -0.4 | 2740 ± 470 nM | – | 6,7 °C |
| CN1CCN(C(=O)Nc2ccc3cc2OCCOCCNc2ccn4ncc-3c4n2)CC1 [compound 35] | 11.8 | 3.7 | 0.3 | 3.6 | -0.3 | 3 | 0.3 | -1.5 | 0 | 0.4 | 2.4 | 0.4 | – | 3.3 | – |
